Data on one substance can be found in patent EP0893123A1, “AGENT FOR USE IN THE PREVENTION AND TREATMENT OF DISORDERS ASSOCIATED WITH VARIOUS TYPES OF AGEING” (Peganov, Eduard Maximovich, priority 1995, dated 1997).

The nature of data set [1]: Body weight of old rats during 21 days of drinking water containing D2O. The format is in vivo. Particulars: for weight of the animals: experimental group. The procedure:
(§1) The experiments were performed on 20 old (29-30 months) outbred female rats. During 21 days control group (9 rats) received usual water as free drinking, and experimental group (11 rats) drank water, containing ? 2O. Control weighing and visual observation of their behaviour was carried out. Then for 6 days both groups received usual water "to wash out " heavy water from the body in order to put both groups in equal conditions in the subsequent experiments. After that the experiment was carried out as follows: each day one control or one experimental animal was narcotised by urethane (1,3 g/kg) and decapitated. The hippocampal slices then were prepared, which were transferred to the special thermostatic chamber, where they were incubated during the experiment. The chamber was perfused at the rate of 2 ml/minute with physiological solution (content in mM: NaCl-124; KCl-5,0; CaCl2-2,5; MgSO4- 2,4; KH2PO4-1,25; NaHCO3-26; glucose-15; pH―7,4-7,5;), saturated with carbogen (95 % O2 and 5 % CO2). The slices were stored for 20-30 minutes at room temperature, then temperature was increased up to 28-29°C. Electrical activity was recorded in 1-1,5 hour after preparation of slices. The recording glass microelectrodes, filled with 2M solution of sodium citrate (electrical resistance 5-25 Mo ? ) were inserted into the layer of pyramidal neurones. Electrical stimulation of Shaffer's collaterals was made through double-barrel glass microelectrodes, filled with physiological solution, with the resistance up to 2 Mo ? , by the rectangular pulses (amplitude up to 40 V, duration 0.2 msec, frequency 0,2-0,3 Hz). Data processing was made on the computer (" Electronics D3-28 ").

Data set [2] has as its system hippocampus of old rats. Briefly: Long term potentiation (LTP, model of ageing): electrophysiology of hippocampal slices from treated old rats. It counts as in vivo. More on the design: PS amplitude on the average: unit not given here.
Text: The following examples illustrate the invention: Example 1. Long term potentiation (LTP, model of ageing) The adequacy of the choice of the model is due the following factors: • LTP phenomenon relates to function of memory, being an initial stage in a chain of processes, resulting in formation of traces of long-term memory, since the impairment of LTP is accompanied on the behavioral level by impairment of memory, first of all on current events (Landfield . W., Lynch G., " Impaired monosynaptic potentiation of in vitro hippocmpal slices aged memory-deficient rats., J. Gerontology, 1977, v.32, 5, pp. 523-533; Landfield P.W., Pilter T.A. Applegate M. D., " The aged hippocampus: A model system for studies on mechanisms of behavioral plasticity and brain ageing) The Hippocampus, 1986, v.3, pp. 323-367). • the decrease of the content of various protein structures in old animals is reported (Monaghan D.T.et al is observed., " Age dependent loss of NMDA receptors in rodent brains ", Soc. Neurosci. Abstr.,1988, v.14, p.486; Angeluoci L., Imperato A.. " Age-dependent loss of muscarinic receptors and cholinergic impairment in the rats brain ", Neuroscience Letters, Suppl. 39, 1990, p. 8), • the degree of dementia was reported to correlate with decrease of the membrane surface density of N-methyl-D-aspartate receptors, responsible for LTP, in patients with SDAT (Represa A., et al., " Is senile dementia of the Alzheimer type associated with hippocampal plasticity", Brain research, 1988, v.457, 355-359). the decrease of the rate of overall protein synthesis and, as a consequence, deficits of various proteins and products of non-protein synthesis is characteristic not only for a brain, but also for all organs and systems and are the mostly ascertained facts, concerning ageing, and recognised markers of ageing (Markides S.C. " Protein synthesis and degradation during aging and senescence ", Biol. Rev., 19836 v.58, 343-422; Rattan S. I., " Ageing and discase: proteins as the molecular link ", Perspect. Biol and Med., 1991, v.34, 4. Pp 526-533).
as §1
Results . On the average in control group weight of the animals was : at the 1-st day 365 ± 37 g, at 21-th day 380 ± 38 g. […]

Data set [3] relates to staphylococcus toxin. More on the design: species or system outbred white rats. Particulars: rat, in vivo.
Data set [4] concerns pseudomonas aeruginosa strain N 450. Briefly: Model of sepsis (intramuscular pseudomonas aeruginosa culture in 10% CaCl2). Particulars: D2O consumed 2 days before and 9 days after infection, fig. 8.
Data set [5] concerns pneumococcus. In words: Bacterial shock model (intraperitoneal pneumococcus culture, minimal lethal dose).

As for deuterium oxide [heavy water], the “weight of the animals” value in data set [1] (at 21-th day of drinking water containing D2O) is 375 ± 34 g. Further, in data set [1] (at the first day, old (29-30 months) female rats), the “weight of the animals” value amounted to 373 ± 25 g. For the same substance, in data set [1] (experimental vs control group, 21 days), the “differences in animals weight and in the weight increment between the two groups” value is “No statistically significant differences”. In addition, the “LTP occurred (share of rats)” value in data set [2] (7 of 10 old rats of experimental group) was found to be 70%. In addition, the “Focal evoked potentials (FEP) with preserved pre- and postsynaptic components registered (share of HSs)” value in data set [2] (12 of 18 experimental hippocampal slices) is recorded as 67%. The “spontaneous pulse activity of pyramidal neurons of field CA1 detected (share of HSs)” value in data set [2] (13 of 18 experimental hippocampal slices, 21 days D2O, 6 days wash out) came out at 72%. Further, in data set [2] (LTP = PS amplitude after tetanization increased more than by 25 %, sustained more than 30 minutes), the “LTP occurred (number of HSs)” value is 10 of 18. For the same substance, the “increment of the potentiated response” value in data set [2] (after second tetanization, example of figure 4) turned out to be 730%. Moreover, the “PS amplitude increased on the average (LTP)” value in data set [2] (after tetanization, experimental group) is reported as 151 % + 26. Also, the “effect of repeated tetanization” value in data set [2] (all cases, experimental group) is given as “further increase of the potentiated response”. Further, the “persistence of restored LTP after cancellation of treatment” value in data set [2] (last three treated animals tested on 25-th, 26-th and 27-th days after D2O cancellation) was “persisted long (about month) after cancellation of treatment”. For the same substance, the “PS amplitude on the average” value in data set [2] (population spikes in experimental HSs) was determined as 217 ± 55. In addition, the “average increase of amplitude PS (frequency potentiation)” value in data set [2] (stimulation by frequency of 1 Hz) is given as 55±31%. In data set [3], the survival of animals was determined as 40% and the time of dying entry was “delay of the time of dying”. In data set [4], the “delay of lethal outcomes” value is 3 days. This substance also gave a decrease of lethality in data set [4] (vs control) of 3 times. The “experimental animals still alive” value in data set [5] (in 48 hours, when 100% of control animals had died, fig. 5) is listed as 50%. For the same substance, in data set [5] (pneumococcus culture, 10 mice, D2O drunk 2-4 days before, fig. 5), the “dying delayed with respect to control animals” value is “about 24 hours”. Also, the dying delayed in data set [5] (with additional treatment during shock to maintain blood circulation, fig. 6) turned out to be 48 h.
